Measured values: patent publication US20110105564A1, “THIENYLPYRIDYLCARBOXAMIDES” (Bayer CropScience AG, priority 2005, published 2011)

experiment: logP determination by HPLC on a reverse-phase column (EEC Directive 79/831 Annex V.A8); assay type: physicochemical; settings: reverse-phase HPLC column (C 18); acidic range pH 2.3; 0.1% aqueous phosphoric acid and acetonitrile, linear gradient 10% to 90% acetonitrile; C 18 column; 43° C.
Method: The logP values given in the Tables and Preparation Examples above are determined in accordance with EEC Directive 79/831 Annex V.A8 by HPLC (High Performance Liquid Chromatography) on a reverse-phase column (C 18). Temperature: 43° C. The determination is carried out in the acidic range at pH 2.3 using the mobile phases 0.1% aqueous phosphoric acid and acetonitrile; linear gradient from 10% acetonitrile to 90% acetonitrile. Calibration is carried out using unbranched alkan-2-ones (having 3 to 16 carbon atoms), with known logP values (determination of the logP values by the retention times using linear interpolation between two successive alkanones).

Row | chromatographic logP | SMILES
1 | 2.25 | O=C(Nc1ccsc1-c1ccc(Br)cn1)c1cccnc1Cl [Example 1, N-[2-(5-bromopyridin-2-yl)-3-thienyl]-2-chloronicotinamide]
2 | 0.87 | Nc1ccsc1-c1ccc(Br)cn1 [Example (III-1), 2-(5-bromopyridin-2-yl)thiophene-3-amine]
3 | 3.27 | CC(C)(C)OC(=O)Nc1ccsc1-c1ccc(Br)cn1 [Example (III-a-1), tert-butyl[2-(5-bromopyridin-2-yl)-3-thienyl]carbamate]
4 | 2.43 | CC(C)(C)OC(=O)Nc1ccsc1I [Example (VI-1), tert-butyl (2-iodo-3-thienyl)carbamate]
